Data: US10307404B1, “Ocular formulations for drug-delivery to the posterior segment of the eye” (priority 2013, dated 2019)
Where two headings read alike, the source gives them in different places.

Assays:
[1] = Solubility; format: physicochemical
[2] = PK of topical ocular sodium phosphate-based Gel Drop, concentrations 1 hour after last dose; format: in vivo, Dutch-belted rabbits; details: Dutch-belted, rabbit
Description: The Gel Drop of Compound-I was applied to eyes of Dutch-belted rabbits.

Cl.NC(=O)c1c(OCc2c(F)cc(Br)cc2F)nsc1NC(=O)NCCCCN1CCCC1 [Compound-I, 3-[(4-bromo-2,6-difluorophenyl)methoxy]-5-[[[[4-(1-pyrrolidinyl)butyl]amino]carbonyl]amino]-4-isothiazolecarboxamide hydrochloride]
solubility provided (clinical dose strengths) ([1]; HP-β-CD (KLEPTOSE HPB) at equal to or more than 1:6 molar ratio): 0.1-1.0%
solubility provided (clinical dose strengths) ([1]; SBE-β-CD (CAPTISOL) at equal to or more than 1:2 ratio): 0.1-1.0%
Solubility ([1]; pH 7.5 (0.05M NaH2PO4)): 1000 µg/mL
Solubility ([1]; pH 9.0 (0.05 m Na2HPO4)): 700 µg/mL
concentration at 1 h ([2]; AH (aqueous humor), 2 mg/ml, pH 6, 2 mg/ml pH 6 BAK 0.005% Gly 2% Osmo 232, 3x/day 5 days, read-out: Mean [AH]): 30 nM
concentration at 1 h ([2]; AH (aqueous humor), 2 mg/ml, pH 6, 2 mg/ml pH 6.0 Phos 0.02% BAK 0.005% Gly 2% PS80 1% Tylox 0.2%, 3x/day 5 days, read-out: Mean [AH]): 13.8 nM
concentration at 1 h ([2]; AH (aqueous humor), 2 mg/ml, pH 6, 2 mg/ml pH 6 Phos 0.05% BAK 0.005% Gly 2% PS80 1% Osmo 261, 3x/day 5 days, read-out: Mean [AH]): 25.5 nM
concentration at 1 h ([2]; AH (aqueous humor), 2 mg/ml, pH 6, 2 mg/ml pH 6.0 Phos 0.05% BAK 0.005% Gly 2%, 3x/day 5 days, read-out: Mean [AH]): 32.2 nM
concentration at 1 h ([2]; AH (aqueous humor), 2 mg/ml, pH 6, 2 mg/ml pH 6.0 Phos 0.2% BAK 0.005% Gly 2%, 3x/day 5 days, read-out: Mean [AH]): 14.8 nM
concentration at 1 h ([2]; AH (aqueous humor), 4 mg/ml, pH 6, 4 mg/ml pH 6.0 Phos 0.2% BAK 0.005% Gly 2%, 3x/day 5 days, read-out: Mean [AH]): 25 nM
concentration at 1 h ([2]; AH (aqueous humor), 4 mg/ml, pH 6, 4 mg/ml pH 6.0 Phos 2% BAK 0.005% Gly 2% PS80 1% Tylox 0.2%, 3x/day 5 days, read-out: Mean [AH]): 21.1 nM
concentration at 1 h ([2]; AH (aqueous humor), 6 mg/ml, pH 5.9, 6 mg/ml pH 5.9 Phos 0.05% BAK 0.005% Gly 2% PS80 1% Tylox 0.1% Polox 0.2% Osmo 270, 3x/day 4 days, read-out: Mean [AH]): 222 nM
concentration at 1 h ([2]; AH (aqueous humor), 6 mg/ml, pH 5.9, 6 mg/ml pH 5.9 Phos 0.1% BAK 0.005% Gly 2% Polox 0.2% Osmo 257, 3x/day 4 days, read-out: Mean [AH]): 55.4 nM
concentration at 1 h ([2]; aqueous humor (AH), 1 mg/ml, pH 6, 1 mg/ml pH 6 BAK 0.005% Gly 2% Osmo 234, 3x/day 5 days, read-out: Mean [AH]): 17.1 nM
concentration at 1 h ([2]; aqueous humor (AH), 1 mg/ml, pH 6, 1 mg/ml pH 6.0 Phos 0.05% BAK 0.005% Gly 2% PS80 0.01% Tylox 0.2%, 3x/day 5 days, read-out: Mean [AH]): 9.09 nM
concentration at 1 h ([2]; aqueous humor (AH), 1 mg/ml, pH 6, 1 mg/ml pH 6 Phos 0.05% BAK 0.005% Gly 2%, 3x/day 5 days, read-out: Mean [AH]): 16.4 nM
concentration at 1 h ([2]; aqueous humor (AH), 1 mg/ml, pH 6, 1 mg/ml pH 6.0 Phos 0.2% BAK 0.005% Gly 2% PS80 1% Tylox 0.2%, 3x/day 5 days, read-out: Mean [AH]): 6.27 nM
concentration at 1 h ([2]; aqueous humor (AH), 1 mg/ml, pH 6, 1 mg/ml pH 6.0 Phos 0.2% BAK 0.005% Gly 2%, 3x/day 5 days, read-out: Mean [AH]): 20.6 nM
concentration at 1 h ([2]; aqueous humor (AH), 2 mg/ml, pH 6, 2 mg/ml pH 6 Phos 0.05% BAK 0.005% Gly 2% Osmo 244, 3x/day 5 days, read-out: Mean [AH]): 27.8 nM
concentration at 1 h ([2]; aqueous humor (AH), 2 mg/ml, pH 6, 2 mg/ml pH 6.0 Phos 0.05% BAK 0.005% Gly 2% PS80 1% Tylox 0.2%, 3x/day 5 days, read-out: Mean [AH]): 18.2 nM
concentration at 1 h ([2]; aqueous humor (AH), 2 mg/ml, pH 6, 2 mg/ml pH 6.0 Phos 0.1% BAK 0.005% Gly 2%, 3x/day 5 days, read-out: Mean [AH]): 18.9 nM
concentration at 1 h ([2]; aqueous humor (AH), 2 mg/ml, pH 6, 2 mg/ml pH 6 Phos 0.2% BAK 0.005% Gly 2% Osmo 257, 3x/day 5 days, read-out: Mean [AH]): 29.5 nM
concentration at 1 h ([2]; aqueous humor (AH), 2 mg/ml, pH 6, 2 mg/ml pH 6 Phos 0.2% BAK 0.005% Gly 2% PS80 1% Osmo 281, 3x/day 5 days, read-out: Mean [AH]): 19.7 nM
concentration at 1 h ([2]; aqueous humor (AH), 2 mg/ml, pH 6.1, 2 mg/ml pH 6.1 Phos […] Osmo 34, 3x/day 4 days, read-out: Mean [AH]): 13.7 nM
concentration at 1 h ([2]; choroid, 1 mg/ml, pH 6, 1 mg/ml pH 6 BAK 0.005% Gly 2% Osmo 234, 3x/day 5 days, read-out: MEAN [choroid]): 359 nM
concentration at 1 h ([2]; choroid, 1 mg/ml, pH 6, 1 mg/ml pH 6 BAK 0.005% Gly 2% PS80 1% Tylox 0.1% Polox 0.2% Osmo 237, 3x/day 5 days, read-out: MEAN [choroid]): 339 nM
concentration at 1 h ([2]; choroid, 1 mg/ml, pH 6, 1 mg/ml pH 6.0 Phos 0.05% BAK 0.005% Gly 2% PS80 0.01% Tylox 0.2%, 3x/day 5 days, read-out: MEAN [choroid]): 295 nM
concentration at 1 h ([2]; choroid, 1 mg/ml, pH 6, 1 mg/ml pH 6 Phos 0.05% BAK 0.005% Gly 2%, 3x/day 5 days, read-out: MEAN [choroid]): 398 nM
concentration at 1 h ([2]; choroid, 1 mg/ml, pH 6, 1 mg/ml pH 6.0 Phos 0.2% BAK 0.005% Gly 2% PS80 1% Tylox 0.2%, 3x/day 5 days, read-out: MEAN [choroid]): 423 nM
concentration at 1 h ([2]; choroid, 1 mg/ml, pH 6, 1 mg/ml pH 6.0 Phos 0.2% BAK 0.005% Gly 2%, 3x/day 5 days, read-out: MEAN [choroid]): 519 nM
concentration at 1 h ([2]; choroid, 1 mg/ml, pH 6.1, 1 mg/ml pH 6.1 BAK 0.005% Gly 2% Osmo 230, 3x/day 5 days, read-out: MEAN [choroid]): 537 nM
concentration at 1 h ([2]; choroid, 2 mg/ml, pH 5.9, 2 mg/ml pH 5.9 Phos 0.05% BAK 0.005% Gly 2% Osmo 233, 3x/day 5 days, read-out: MEAN [choroid]): 362 nM
concentration at 1 h ([2]; choroid, 2 mg/ml, pH 6, 2 mg/ml pH 6 BAK 0.005% Gly 2% Osmo 232, 3x/day 5 days, read-out: MEAN [choroid]): 589 nM
concentration at 1 h ([2]; choroid, 2 mg/ml, pH 6, 2 mg/ml pH 6.0 Phos 0.02% BAK 0.005% Gly 2% PS80 1% Tylox 0.2%, 3x/day 5 days, read-out: MEAN [choroid]): 599 nM
concentration at 1 h ([2]; choroid, 2 mg/ml, pH 6, 2 mg/ml pH 6 Phos 0.05% BAK 0.005% Gly 2% Osmo 244, 3x/day 5 days, read-out: MEAN [choroid]): 422 nM
concentration at 1 h ([2]; choroid, 2 mg/ml, pH 6, 2 mg/ml pH 6 Phos 0.05% BAK 0.005% Gly 2% PS80 1% Osmo 261, 3x/day 5 days, read-out: MEAN [choroid]): 559 nM
concentration at 1 h ([2]; choroid, 2 mg/ml, pH 6, 2 mg/ml pH 6.0 Phos 0.05% BAK 0.005% Gly 2%, 3x/day 5 days, read-out: MEAN [choroid]): 528 nM
concentration at 1 h ([2]; choroid, 2 mg/ml, pH 6, 2 mg/ml pH 6.0 Phos 0.1% BAK 0.005% Gly 2%, 3x/day 5 days, read-out: MEAN [choroid]): 525 nM
concentration at 1 h ([2]; choroid, 2 mg/ml, pH 6, 2 mg/ml pH 6 Phos 0.2% BAK 0.005% Gly 2% PS80 1% Osmo 281, 3x/day 5 days, read-out: MEAN [choroid]): 357 nM
concentration at 1 h ([2]; choroid, 2 mg/ml, pH 6, 2 mg/ml pH 6.0 Phos 0.2% BAK 0.005% Gly 2%, 3x/day 5 days, read-out: MEAN [choroid]): 532 nM
concentration at 1 h ([2]; choroid, 2 mg/ml, pH 6.1, 2 mg/ml pH 6.1 BAK 0.005% Gly 2% Osmo 229, 3x/day 5 days, read-out: MEAN [choroid]): 462 nM
concentration at 1 h ([2]; choroid, 2 mg/ml, pH 6.1, 2 mg/ml pH 6.1 Phos 0.05% BAK 0.005% Gly 2% PS80 1% Tylox 0.1% Osmo 239, 3x/day 5 days, read-out: MEAN [choroid]): 660 nM
concentration at 1 h ([2]; choroid, 2 mg/ml, pH 6.1, 2 mg/ml pH 6.1 Phos […] Osmo 22, 3x/day 5 days, read-out: MEAN [choroid]): 356 nM
concentration at 1 h ([2]; choroid, 2 mg/ml, pH 6.1, 2 mg/ml pH 6.1 Phos […] Osmo 34, 3x/day 4 days, read-out: MEAN [choroid]): 466 nM
concentration at 1 h ([2]; choroid, 4 mg/ml, pH 6, 4 mg/ml pH 6.0 Phos 0.2% BAK 0.005% Gly 2%, 3x/day 5 days, read-out: MEAN [choroid]): 596 nM
